Type in all cases: biochemical
For one experiment, the target named is Tyk2 (Homo sapiens, UniProt P29597). In words: Inhibition of JAK kinase activity, EZ Reader microfluidic phosphorylation of peptide substrate: Tyk2. Particulars: Tyk2 kinase 1 nM; highest final concentration 10 μM, 1:3 serial dilution, 8 points, duplicates. From the text:
(§1) EZ Reader available from PerkinElmer can be used for detecting the phosphorylation of polypeptide substrates catalyzed by kinases. This device is based on microfluidic separation technology, and can directly detect fluorescence labeled substrates and products. The separation step is achieved in a microfluidic chip by controlling the pressure and electric field intensity. In a kinase experiment, the product conversion rate is generally controlled at 20-30%. This biological assay method is used for identifying the inhibitory effect of the compounds on JAK.
(§2) The compound powder was dissolved in DMSO, sealed and stored in a refrigerator at −20° C. The in-house compound Ref1 was used as a positive control for testing of JAK1, JAK2 and Tyk2, and Ref2 was used as a positive control for testing of JAK3.
(§3) • S2.1. 1M HEPES buffer: 0.5M HEPES free acid and 0.5M HEPES sodium salt are weighed, added into ultrapure water for dissolution, brought to a desired volume, filtered and stored in a refrigerator at 4° C. • S2.2. 40 mM ATP solution: dissolved in a 50 mM HEPES buffer solution, prepared into 40 mM, aliquoted, and cryopreserved in a refrigerator at −20° C. • S2.3. 0.5% Tween 20: 100% Tween 20 was diluted with ultrapure water, and stored in a refrigerator at 4° C. • S2.4. 35% bovine serum albumin: a 35% bovine serum albumin solution is prepared in ultrapure water, aliquoted, and stored in a refrigerator at −20° C. • S2.5. 1M dithiothreitol solution: dithiothreitol is formulated into a 1M solution with ultrapure water, aliquoted, and stored in a refrigerator at −20° C. • S2.6. 0.5 mM Jaktide Peptide substrate solution: it is dissolved in 50 mM HEPES to 0.5 mM, aliquoted, and stored in a refrigerator at −20° C. • S2.7. 0.5 mM IRStide Peptide substrate solution: it is dissolved in 50 mM HEPES to 0.5 mM, aliquoted, and stored in a refrigerator at −20° C. • S2.8. Assay Buffer: 20 mM HEPES buffer, pH 7.4, 10 mM magnesium chloride, 0.01% bovine serum albumin BSA, 0.0005% Tween-20, and a 1 mM dithiothreitol solution. • S2.9. Stop Buffer: 180 mM HEPES buffer, 20 mM ethylenediamine tetraacetic acid (EDTA), and 0.2% Coating Reagent 3. • S2.10. Separation Buffer: 100 mM HEPES buffer, 10 mM EDTA, 0.0005% Tween 20, 0.1% Coating Reagent 3, and 1% dimethyl sulfoxide. 3. Experimental Procedures • S3.1. Preparation of compound plate
(§4) The compound is dissolved in dimethyl sulfoxide to 10 mM, a certain volume is taken and diluted to 0.6 mM, 10 μl of the diluted 0.6 mM solution is taken and added into a 384 microplate or 1:3 serial dilution, with a total of 8 concentration points. • S3.2. Compound layout
(§5) • positive control (HPE1): Ref1, final concentration: 10 μM • positive control (HPE1): Ref2, final concentration: 10 μM • negative control (ZPE): DMSO, with a final concentration of 1.6% • Compound: the highest final concentration at 10 μM, 1:3 serial dilution, with 8 concentration points and in duplicates. 4. Experimental operation steps • S4.1. the experimental plate was added with 250 nl of the compound per well with ECHO, and centrifuged at 1,000 rpm for 1 minute; • S4.2. the precipitate was added with 5 μl of the experimental buffer, and shaken for several seconds to fully dissolve the compound; • S4.3. the solution was added with 5 μl of a 3× substrate solution, as well as 5 μl of a 3× kinase solution, and centrifuged at 800 rpm for 1 minute; • S4.4. The final concentrations of JAK1, JAK2, JAK3 and Tyk2 kinases in the reaction system are 20, 1, 1 and 1 nM, respectively. • S4.5. the reaction system is incubated at room temperature, wherein the incubation time of each kinase is different, and there are differences in incubation time of different batches of kinases. • S4.6. When the reaction reaches 20%-30%, the reaction system is added with 15 μl of the stop buffer to terminate the reaction, and centrifuged at 1,000 rpm for 2 minutes. • S4.7. The precipitate was placed onto a EZ Reader for plate reading. • S4.8. […]

The target in a further experiment is T1, JAK3 (Homo sapiens, UniProt P52333).
T1 sequence (P52333 1-1124): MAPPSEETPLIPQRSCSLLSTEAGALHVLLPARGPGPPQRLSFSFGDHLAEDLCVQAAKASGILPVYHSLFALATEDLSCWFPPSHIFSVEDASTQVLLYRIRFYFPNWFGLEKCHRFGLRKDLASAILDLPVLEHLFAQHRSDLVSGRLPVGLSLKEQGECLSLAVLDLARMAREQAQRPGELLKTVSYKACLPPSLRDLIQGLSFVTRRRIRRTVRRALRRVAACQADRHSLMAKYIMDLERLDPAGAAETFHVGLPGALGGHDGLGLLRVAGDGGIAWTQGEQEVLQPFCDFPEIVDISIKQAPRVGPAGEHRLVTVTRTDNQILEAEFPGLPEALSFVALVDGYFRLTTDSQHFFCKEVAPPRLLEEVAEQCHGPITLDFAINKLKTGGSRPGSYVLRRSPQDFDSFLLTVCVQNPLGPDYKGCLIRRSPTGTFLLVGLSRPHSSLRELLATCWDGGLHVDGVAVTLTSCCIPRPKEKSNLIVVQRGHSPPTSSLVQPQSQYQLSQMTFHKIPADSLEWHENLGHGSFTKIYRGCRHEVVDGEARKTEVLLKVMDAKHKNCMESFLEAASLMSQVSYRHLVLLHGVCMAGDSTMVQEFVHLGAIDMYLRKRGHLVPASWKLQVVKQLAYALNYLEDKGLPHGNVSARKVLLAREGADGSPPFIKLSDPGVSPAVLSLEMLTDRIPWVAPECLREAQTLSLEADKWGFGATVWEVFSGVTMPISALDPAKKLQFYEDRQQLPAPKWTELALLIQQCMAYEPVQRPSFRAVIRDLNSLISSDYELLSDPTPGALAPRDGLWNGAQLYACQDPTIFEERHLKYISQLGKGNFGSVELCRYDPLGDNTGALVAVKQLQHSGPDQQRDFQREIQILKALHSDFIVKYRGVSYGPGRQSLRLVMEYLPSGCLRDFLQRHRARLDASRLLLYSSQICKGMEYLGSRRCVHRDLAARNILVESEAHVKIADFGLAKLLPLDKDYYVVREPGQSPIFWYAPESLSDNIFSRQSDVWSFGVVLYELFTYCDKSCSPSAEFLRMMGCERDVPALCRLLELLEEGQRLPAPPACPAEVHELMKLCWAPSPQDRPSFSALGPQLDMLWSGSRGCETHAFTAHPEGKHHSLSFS
In words: Inhibition of JAK kinase activity, EZ Reader microfluidic phosphorylation of peptide substrate: JAK3. The following applies: JAK3 kinase 1 nM; highest final concentration 10 μM, 1:3 serial dilution, 8 points, duplicates.
From the text: as §1, §2, §3, §4, §5

The target in another experiment is JAK2 (Homo sapiens, UniProt O60674). As to the kind of experiment: Inhibition of JAK kinase activity, EZ Reader microfluidic phosphorylation of peptide substrate: JAK2. The following applies: JAK2 kinase 1 nM; highest final concentration 10 μM, 1:3 serial dilution, 8 points, duplicates.
Chain of JAK2 (O60674 whole entry): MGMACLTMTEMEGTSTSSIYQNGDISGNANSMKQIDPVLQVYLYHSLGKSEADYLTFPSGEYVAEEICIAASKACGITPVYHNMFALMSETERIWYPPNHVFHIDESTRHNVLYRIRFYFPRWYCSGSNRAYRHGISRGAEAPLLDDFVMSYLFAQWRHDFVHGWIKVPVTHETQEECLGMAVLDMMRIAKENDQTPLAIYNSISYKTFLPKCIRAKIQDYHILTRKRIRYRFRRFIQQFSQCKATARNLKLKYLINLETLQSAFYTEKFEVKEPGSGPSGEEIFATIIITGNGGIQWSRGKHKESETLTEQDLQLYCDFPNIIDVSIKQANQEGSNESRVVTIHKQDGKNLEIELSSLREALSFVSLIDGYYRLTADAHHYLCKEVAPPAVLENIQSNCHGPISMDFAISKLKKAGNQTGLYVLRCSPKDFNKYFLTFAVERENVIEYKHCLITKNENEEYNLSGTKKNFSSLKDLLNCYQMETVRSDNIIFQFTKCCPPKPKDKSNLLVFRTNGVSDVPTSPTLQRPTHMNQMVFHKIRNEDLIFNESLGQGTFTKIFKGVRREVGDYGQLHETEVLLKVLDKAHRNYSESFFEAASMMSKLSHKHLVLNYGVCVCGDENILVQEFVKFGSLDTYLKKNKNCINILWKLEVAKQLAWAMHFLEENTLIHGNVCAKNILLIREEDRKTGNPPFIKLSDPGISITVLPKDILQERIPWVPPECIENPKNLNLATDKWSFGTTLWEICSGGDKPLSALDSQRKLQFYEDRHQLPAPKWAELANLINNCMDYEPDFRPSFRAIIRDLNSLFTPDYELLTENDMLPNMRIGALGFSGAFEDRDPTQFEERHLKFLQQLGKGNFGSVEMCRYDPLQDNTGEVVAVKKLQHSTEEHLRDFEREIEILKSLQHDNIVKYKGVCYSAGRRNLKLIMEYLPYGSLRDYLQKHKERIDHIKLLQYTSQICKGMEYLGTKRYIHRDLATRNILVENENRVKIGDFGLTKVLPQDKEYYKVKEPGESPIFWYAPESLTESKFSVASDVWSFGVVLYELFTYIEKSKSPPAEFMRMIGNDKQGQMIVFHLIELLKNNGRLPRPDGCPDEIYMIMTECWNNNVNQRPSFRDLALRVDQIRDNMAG
From the text: as §1, §2, §3, §4, §5

In the next experiment the target is JAK1 (Homo sapiens, UniProt P23458). In words: Inhibition of JAK kinase activity, EZ Reader microfluidic phosphorylation of peptide substrate: JAK1. Particulars: JAK1 kinase 20 nM; highest final concentration 10 μM, 1:3 serial dilution, 8 points, duplicates.
Chain of JAK1 (P23458 whole entry): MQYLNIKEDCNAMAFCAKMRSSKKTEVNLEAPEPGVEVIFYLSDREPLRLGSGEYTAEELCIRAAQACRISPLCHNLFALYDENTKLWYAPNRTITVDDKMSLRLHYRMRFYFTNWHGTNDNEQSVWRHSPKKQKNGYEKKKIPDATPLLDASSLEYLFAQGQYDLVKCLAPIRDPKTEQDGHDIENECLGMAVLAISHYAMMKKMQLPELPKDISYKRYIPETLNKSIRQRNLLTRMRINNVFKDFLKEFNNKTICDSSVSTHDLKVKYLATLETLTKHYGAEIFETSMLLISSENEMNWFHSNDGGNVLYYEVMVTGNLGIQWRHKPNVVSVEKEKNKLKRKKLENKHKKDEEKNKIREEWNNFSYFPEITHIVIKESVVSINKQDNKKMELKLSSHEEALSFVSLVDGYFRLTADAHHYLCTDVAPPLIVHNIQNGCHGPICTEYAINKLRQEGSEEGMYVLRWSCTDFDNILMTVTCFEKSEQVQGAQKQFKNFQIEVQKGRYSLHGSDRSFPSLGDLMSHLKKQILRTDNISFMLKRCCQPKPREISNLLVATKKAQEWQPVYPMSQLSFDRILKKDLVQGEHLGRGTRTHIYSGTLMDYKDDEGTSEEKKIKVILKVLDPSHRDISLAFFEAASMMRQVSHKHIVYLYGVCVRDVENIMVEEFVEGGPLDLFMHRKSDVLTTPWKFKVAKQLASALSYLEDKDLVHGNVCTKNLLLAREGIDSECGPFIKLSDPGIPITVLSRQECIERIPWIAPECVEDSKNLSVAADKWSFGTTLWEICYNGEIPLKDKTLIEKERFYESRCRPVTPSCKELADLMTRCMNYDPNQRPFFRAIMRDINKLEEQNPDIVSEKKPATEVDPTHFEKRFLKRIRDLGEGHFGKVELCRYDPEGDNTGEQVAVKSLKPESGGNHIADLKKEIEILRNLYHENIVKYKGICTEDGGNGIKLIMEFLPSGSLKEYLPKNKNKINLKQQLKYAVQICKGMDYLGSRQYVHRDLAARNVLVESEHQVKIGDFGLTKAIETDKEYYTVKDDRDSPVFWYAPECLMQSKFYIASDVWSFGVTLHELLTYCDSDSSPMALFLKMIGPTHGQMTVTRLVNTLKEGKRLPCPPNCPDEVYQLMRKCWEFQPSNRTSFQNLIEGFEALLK
From the text: as §1, §2, §3, §4, §5

The results in this text go back to patent publication US12509447B2, “Small molecule compound” (Technoderma Medicines Pte Ltd, priority 2019, dated 2025).

Each structure is given as a SMILES string.

Chain of Tyk2 (P29597 whole entry): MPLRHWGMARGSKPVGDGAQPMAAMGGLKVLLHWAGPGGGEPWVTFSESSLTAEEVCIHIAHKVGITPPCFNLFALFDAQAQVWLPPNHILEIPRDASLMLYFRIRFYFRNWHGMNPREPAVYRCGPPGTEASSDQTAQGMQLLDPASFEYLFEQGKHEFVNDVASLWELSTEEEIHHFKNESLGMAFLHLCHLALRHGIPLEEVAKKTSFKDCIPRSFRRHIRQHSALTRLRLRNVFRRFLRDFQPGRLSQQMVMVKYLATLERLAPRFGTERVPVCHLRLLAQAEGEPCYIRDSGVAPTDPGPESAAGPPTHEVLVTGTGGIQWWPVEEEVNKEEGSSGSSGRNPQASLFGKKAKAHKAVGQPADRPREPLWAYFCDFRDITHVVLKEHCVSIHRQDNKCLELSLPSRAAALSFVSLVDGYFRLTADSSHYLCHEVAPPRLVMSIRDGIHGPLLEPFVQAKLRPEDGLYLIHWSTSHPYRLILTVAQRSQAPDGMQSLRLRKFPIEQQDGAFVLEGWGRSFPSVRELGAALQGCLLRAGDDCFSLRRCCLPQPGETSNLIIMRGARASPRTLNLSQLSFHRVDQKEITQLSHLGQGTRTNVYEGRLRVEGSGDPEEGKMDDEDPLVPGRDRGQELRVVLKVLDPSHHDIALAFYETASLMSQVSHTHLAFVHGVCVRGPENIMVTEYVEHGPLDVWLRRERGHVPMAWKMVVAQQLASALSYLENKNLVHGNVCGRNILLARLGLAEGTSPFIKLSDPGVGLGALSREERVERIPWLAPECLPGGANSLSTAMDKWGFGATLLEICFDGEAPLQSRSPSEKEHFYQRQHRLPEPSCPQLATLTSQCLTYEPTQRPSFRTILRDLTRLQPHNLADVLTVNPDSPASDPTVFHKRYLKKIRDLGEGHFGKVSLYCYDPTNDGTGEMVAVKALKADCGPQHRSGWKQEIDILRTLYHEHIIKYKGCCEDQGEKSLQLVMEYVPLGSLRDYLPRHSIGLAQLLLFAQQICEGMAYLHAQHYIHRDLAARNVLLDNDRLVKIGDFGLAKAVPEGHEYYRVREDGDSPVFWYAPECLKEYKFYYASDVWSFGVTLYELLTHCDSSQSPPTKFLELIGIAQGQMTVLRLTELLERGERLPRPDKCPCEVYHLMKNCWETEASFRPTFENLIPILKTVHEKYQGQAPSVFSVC

Regarding `CCS(=O)(=O)N1CC(n2cc(-c3ccnc(Nc4cnn(C)c4)c3)cn2)C1` [TDM-180642, 4-(1-(1-(ethylsulfonyl)azetidin-3-yl)-1H-pyrazol-4-yl)-N-(1-methyl-1H-pyrazol-4-yl) pyridine-2-amine], the half-maximal inhibitory concentration (IC50) against Tyk2, against JAK3, against JAK2 and at JAK1 was ≥ 10 µM throughout.

Regarding `CCCS(=O)(=O)N1CC(n2cc(-c3ccnc(Nc4cnn(C)c4)c3)cn2)C1` [TDM-180643, N-(1-methyl-1H-pyrazol-4-yl)-4-(1-(1-(propylsulfonyl)azetidin-3-yl)-1H-pyrazol-4-yl)pyridine-2-amine], the IC50 on Tyk2, on JAK3, at JAK2 and at JAK1 was ≥ 10 µM in each case.

Consider `Cn1cc(Nc2cc(-c3cnn(C4CN(C(=O)CO)C4)c3)ccn2)cn1` [TDM-180644, 2-hydroxy-1-(3-(4-(2-((1-methyl-1H-pyrazol-4-yl)amino)pyridin-4-yl)-1H-pyrazol-1-yl)azetidin-1-yl)ethan-1-one], for which the 50% inhibitory concentration (IC50) at Tyk2, against JAK3, against JAK2 and against JAK1 was ≥ 10 µM each time.

For the compound `CC(=O)N1CC(n2cc(-c3ccnc(Nc4cnn(C)c4)c3)cn2)C1` [TDM-180645], the IC50 against Tyk2, against JAK3, against JAK2 and on JAK1 was ≥ 10 µM throughout.

With `CCC(=O)N1CC(n2cc(-c3ccnc(Nc4cnn(C)c4)n3)cn2)C1` [TDM-180646, 1-(3-(4-(2-((1-methyl-1H-pyrazol-4-yl)amino)pyrimidin-4-yl)-1H-pyrazol-1-yl)azetidin-1-yl)propan-1-one], the IC50 at Tyk2, against JAK3, on JAK2 and at JAK1 was ≥ 10 µM each time.

For `CCS(=O)(=O)N1CCC(n2cc(-c3ccnc(Nc4cnn(C)c4)n3)cn2)C1` (stereo not shown) [TDM-180647, 4-(1-(1-(ethylsulfonyl)pyrrolidine-3-yl)-1H-pyrazol-4-yl)-N-(1-methyl-1H-pyrazol-4-yl)pyrimidin-2-amine], the IC50 is ≥ 10 µM against Tyk2, 1 to 10 µM against JAK3, 1 to 10 µM at JAK2 and ≥ 10 µM against JAK1.

Take `CCCS(=O)(=O)N1CCC(n2cc(-c3ccnc(Nc4cnn(C)c4)n3)cn2)C1` (stereo not shown) [TDM-180648, N-(1-methyl-1H-pyrazol-4-yl)-4-(1-(1-(propylsulfonyl)pyrrolidine-3-yl)-1H-pyrazol-4-yl)pyrimidin-2-amine]: the IC50 on Tyk2, at JAK3, against JAK2 and against JAK1 was 1 to 10 µM each time.

On to `CCC(=O)N1CCC(n2cc(-c3ccnc(Nc4cnn(C)c4)n3)cn2)C1` (stereo not shown) [TDM-180649, 1-(3-(4-(2-((1-methyl-1H-pyrazol-4-yl)amino)pyrimidin-4-yl)-1H-pyrazol-1-yl)pyrrolidin-1-yl)propan-1-one], for which the 50% inhibitory concentration (IC50) at Tyk2, on JAK3, against JAK2 and at JAK1 was ≥ 10 µM in each case.

Regarding `CCCC(=O)N1CCC(n2cc(-c3ccnc(Nc4cnn(C)c4)n3)cn2)C1` (stereo not shown) [TDM-180650, 1-(3-(4-(2-((1-methyl-1H-pyrazol-4-yl)amino)pyrimidin-4-y1)-1H-pyrazol-1-yl)pyrrolidin-1-yl)butan-1-one], the concentration for half-maximal inhibition (IC50) against Tyk2, against JAK3, on JAK2 and against JAK1 was ≥ 10 µM in each case.

Turning to `Cn1cc(Nc2nccc(-c3cnn(C4CCN(C(=O)CC(F)(F)F)C4)c3)n2)cn1` (stereo not shown) [TDM-180651, 3,3,3-trifluoro-1-(3-(4-(2-((1-methyl-1H-pyrazol-4-yl)amino)pyrimidin-4-yl)-1H-pyrazol-1-yl)pyrrolidine-yl)propan-1-one], the concentration for half-maximal inhibition (IC50) on Tyk2 is ≥ 10 µM; against JAK3, ≥ 10 µM; on JAK2, 1 to 10 µM; against JAK1, ≥ 10 µM.

Consider `Cn1cc(Nc2nccc(-c3cnn(C4CCN(C(=O)C5CC5)C4)c3)n2)cn1` (stereo not shown) [TDM-180652, cyclopropyl(3-(4-(2-((1-methyl-1H-pyrazol-4-yl)amino)pyrimidin-4-yl)-1H-pyrazol-1-yl)pyrrolidin-1-yl)ketone], for which the IC50 against Tyk2, against JAK3, on JAK2 and against JAK1 was ≥ 10 µM in each case.

For `Cn1cc(Nc2nccc(-c3cnn(C4CCN(C(=O)CC#N)C4)c3)n2)cn1` (stereo not shown) [TDM-180653, 3-(3-(4-(2-((1-methyl-1H-pyrazol-4-yl)amino)pyrimidin-4-yl)-1H-pyrazol-1-yl)pyrrolidin-1-yl)-3-oxopropanenitrile], the IC50 against Tyk2 is 1 to 10 µM; against JAK3, ≥ 10 µM; on JAK2 it was 1 to 10 µM; at JAK1, ≥ 10 µM.

Consider `Cn1cc(Nc2nccc(-c3cnn(C4CCN(C(=O)C5CC5(F)F)C4)c3)n2)cn1` (stereo not shown) [TDM-180654, (2,2-difluorocyclopropyl)(3-(4-(2-((1-methyl-1H-pyrazol-4-yl)amino)pyrimidin-4-yl)-1H-pyrazol-1-yl)pyrrolidin-1-yl)ketone], for which the IC50 against Tyk2 is 1 to 10 µM; on JAK3 it was ≥ 10 µM; against JAK2, 1 to 10 µM; against JAK1, ≥ 10 µM.

The term IC50 denotes the concentration that gives 50% inhibition.
